Results as given in patent US20260285850A1, “SUBSTITUTED OXAZOLIDINONES AND IMIDAZOLINONES AS HERBICIDES” (FMC CORPORATION, priority 2023, published 2026).

Experiments:
Format in all cases: in vivo
[1] = tested on: sedge, umbrella (small-flower umbrella sedge, Cyperus difformis); assay: Test B flooded paddy test, visual plant response rating 0-100; settings: 250 g ai/ha, Flood, applied to paddy water, evaluated after 13 days
Method in brief: (§1)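 Treatment occurs at the 2-leaf stage by adding compound to floodwater standing 3 cm above the soil, a level kept for the whole test. Plants stay in the greenhouse 13 days before visual comparison with controls.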

[2] = tested on: ducksalad (Heteranthera limosa); assay: as above; settings: 250 g ai/ha, Flood, applied to paddy water, evaluated after 13 days
Method in brief: as §1

[3] = tested on: barnyardgrass (Echinochloa crusgalli); assay: as above; settings: 250 g ai/ha, Flood, applied to paddy water, evaluated after 13 days
Method in brief: as §1

rice (Oryza sativa) = assay: as above; settings: 250 g ai/ha, Flood, applied to paddy water, evaluated after 13 days
Method in brief: as §1

[4] = tested on: blackgrass (Alopecurus myosuroides); assay: Test A postemergence application, visual injury rating 0-100
Method in brief: (§2)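 Visual injury, scored 0-100 (100 = complete control) against untreated plants, 10 days after greenhouse treatment. Test chemicals in surfactant-containing non-phytotoxic solvent were applied in loam soil and sand, as a preemergence soil spray on seeds or postemergence to plants at the one- to two-leaf stage.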

[5] = tested on: barnyardgrass (Echinochloa crus-galli); assay: as above
Method in brief: as §2

kochia (Bassia scoparia) [6] = assay: as above
Method in brief: as §2

[7] = tested on: ryegrass, Italian (italian ryegrass, Lolium multiflorum); assay: as above
Method in brief: as §2

[8] = tested on: horseweed (Erigeron canadensis); assay: as above
Method in brief: as §2

[9] = tested on: ragweed (common ragweed, Ambrosia artemisiifolia); assay: as above
Method in brief: as §2

[10] = tested on: palmer (palmer amaranth, palmer pigweed, Amaranthus palmeri); assay: as above
Method in brief: as §2

soybean (Glycine max) [11] = assay: as above
Method in brief: as §2

[12] = tested on: oat, wild (wild oat, Avena fatua); assay: as above
Method in brief: as §2

[13] = tested on: wheat (Triticum aestivum); assay: as above
Method in brief: as §2

[14] = tested on: galium (catchweed bedstraw, Galium aparine); assay: as above; settings: Postemergence, 16 g ai/ha, greenhouse 10 days; 0 no effect, 100 complete control
Method in brief: as §2

[15] = tested on: green foxtail (Setaria viridis); assay: as above
Method in brief: as §2

corn (Zea mays) [16] = assay: as above
Method in brief: as §2

[17] = tested on: blackgrass (Alopecurus myosuroides); assay: Test A preemergence soil spray, visual injury rating 0-100; settings: 10 days
Method in brief: as §2

[18] = tested on: barnyardgrass (Echinochloa crus-galli); assay: as above; settings: 10 days
Method in brief: as §2

kochia (Bassia scoparia) [19] = assay: as above; settings: 10 days
Method in brief: as §2

[20] = tested on: ryegrass, Italian (italian ryegrass, Lolium multiflorum); assay: as above; settings: 10 days
Method in brief: as §2

[21] = tested on: ragweed (common ragweed, Ambrosia artemisiifolia); assay: as above; settings: 10 days
Method in brief: as §2

[22] = tested on: palmer (palmer amaranth, palmer pigweed, Amaranthus palmeri); assay: as above; settings: 10 days
Method in brief: as §2

soybean (Glycine max) [23] = assay: as above; settings: 10 days
Method in brief: as §2

[24] = tested on: oat, wild (wild oat, Avena fatua); assay: as above; settings: 10 days
Method in brief: as §2

[25] = tested on: wheat (Triticum aestivum); assay: as above; settings: 10 days
Method in brief: as §2

[26] = tested on: green foxtail (Setaria viridis); assay: as above; settings: 10 days
Method in brief: as §2

corn (Zea mays) [27] = assay: as above; settings: 10 days
Method in brief: as §2

[28] = 62 g ai/ha, postemergence, 10 days, 0 = no effect, 100 = complete control
[29] = Postemergence, 16 g ai/ha, greenhouse 10 days, 0 no effect, 100 complete control
[30] = 62 g ai/ha, 0 = no effect, 100 = complete control

`CC1(C(=O)NC2CC=C(C(=O)OCC(F)F)C2)CN(c2cc(Cl)cc(Cl)c2)C(=O)O1` (stereo not drawn) [Compound 153] was tested. Which “Plant response rating, Sedge, Umbrella (0 to 100 scale, 0 is no effect and 100 is complete control)” value [1] did it give?
Its value is 0.

What about the “Plant response rating, Ducksalad (0 to 100 scale, 0 is no effect and 100 is complete control)” value [2] of the same molecule?
The value was 0.

And the “Plant response rating, Barnyardgrass (0 to 100 scale, 0 is no effect and 100 is complete control)” value [3]?
The value was 0.

And the “Plant response rating, Rice (0 to 100 scale, 0 is no effect and 100 is complete control)” value (rice (Oryza sativa))?
The value was 0.

And the “Blackgrass plant response rating (0-100)” value [4, 28]?
Its value is 90.

What about the “Blackgrass plant response rating (0 to 100 scale)” value [4, 29] of the same molecule?
The value was 80.

And the “Barnyardgrass plant response rating (0-100)” value [5, 28]?
Its value is 0.

What about the “Barnyardgrass plant response rating (0 to 100 scale)” value [5, 29] of the same molecule?
Its value is 0.

What about the “Kochia plant response rating (0-100)” value (kochia (Bassia scoparia) [6]; [28]) of the same molecule?
Its value is 0.

What about the “Kochia plant response rating (0 to 100 scale)” value (kochia (Bassia scoparia) [6]; [29]) of the same molecule?
The value was 0.

What about the “Ryegrass, Italian plant response rating (0-100)” value [7, 28] of the same molecule?
Its value is 0.

What about the “Ryegrass, Italian plant response rating (0 to 100 scale)” value [7, 29] of the same molecule?
Its value is 0.

And the “Horseweed plant response rating (0-100)” value [8, 28]?
Its value is 0.

What about the “Horseweed plant response rating (0 to 100 scale)” value [8, 29] of the same molecule?
Its value is 20.

And the “Ragweed plant response rating (0-100)” value [9, 28]?
Its value is 0.

What about the “Ragweed plant response rating (0 to 100 scale)” value [9, 29] of the same molecule?
The value was 0.

What about the “Pigweed, Palmer plant response rating (0-100)” value [10, 28] of the same molecule?
Its value is 0.

And the “Pigweed, Palmer plant response rating (0 to 100 scale)” value [10, 29]?
The value was 0.

And the “Soybean plant response rating (0-100)” value (soybean (Glycine max) [11]; [28])?
Its value is 0.

And the “Soybean plant response rating (0 to 100 scale)” value (soybean (Glycine max) [11]; [29])?
The value was 0.

And the “Oat, Wild plant response rating (0-100)” value [12, 28]?
The value was 0.

And the “Oat, Wild plant response rating (0 to 100 scale)” value [12, 29]?
Its value is 0.

And the “Wheat plant response rating (0-100)” value [13, 28]?
Its value is 0.

What about the “Wheat plant response rating (0 to 100 scale)” value [13, 29] of the same molecule?
The value was 0.

And the “Galium plant response rating (0 to 100 scale)” value [14]?
The value was 0.

And the “Foxtail, Green plant response rating (0-100)” value [15, 28]?
Its value is 0.

What about the “Foxtail, Green plant response rating (0 to 100 scale)” value [15, 29] of the same molecule?
Its value is 0.

And the “Corn plant response rating (0-100)” value (corn (Zea mays) [16]; [28])?
Its value is 0.

What about the “Corn plant response rating (0 to 100 scale)” value (corn (Zea mays) [16]; [29]) of the same molecule?
Its value is 0.

What about the “Blackgrass plant response rating” value ([17]; 16 g ai/ha, 0 to 100 scale) of the same molecule?
The value was 0.

And the “Blackgrass plant response rating (0-100)” value [17, 30]?
The value was 0.

What about the “Barnyardgrass plant response rating” value ([18]; 16 g ai/ha, 0 to 100 scale) of the same molecule?
The value was 0.

What about the “Barnyardgrass plant response rating (0-100)” value [18, 30] of the same molecule?
Its value is 20.

And the “Kochia plant response rating” value (kochia (Bassia scoparia) [19]; 16 g ai/ha, 0 to 100 scale)?
The value was 0.

And the “Kochia plant response rating (0-100)” value (kochia (Bassia scoparia) [19]; [30])?
Its value is 0.

And the “Ryegrass, Italian plant response rating” value ([20]; 16 g ai/ha, 0 to 100 scale)?
Its value is 0.

What about the “Ryegrass, Italian plant response rating (0-100)” value [20, 30] of the same molecule?
The value was 0.

And the “Ragweed plant response rating” value ([21]; 16 g ai/ha, 0 to 100 scale)?
Its value is 0.

And the “Ragweed plant response rating (0-100)” value [21, 30]?
Its value is 0.

And the “Pigweed, Palmer plant response rating” value ([22]; 16 g ai/ha, 0 to 100 scale)?
The value was 0.

And the “Pigweed, Palmer plant response rating (0-100)” value [22, 30]?
The value was 0.

What about the “Soybean plant response rating” value (soybean (Glycine max) [23]; 16 g ai/ha, 0 to 100 scale) of the same molecule?
The value was 0.

What about the “Soybean plant response rating (0-100)” value (soybean (Glycine max) [23]; [30]) of the same molecule?
The value was 10.

What about the “Oat, Wild plant response rating” value ([24]; 16 g ai/ha, 0 to 100 scale) of the same molecule?
Its value is 0.

And the “Oat, Wild plant response rating (0-100)” value [24, 30]?
The value was 0.

And the “Wheat plant response rating” value ([25]; 16 g ai/ha, 0 to 100 scale)?
Its value is 0.

And the “Wheat plant response rating (0-100)” value [25, 30]?
Its value is 0.

What about the “Foxtail, Green plant response rating” value ([26]; 16 g ai/ha, 0 to 100 scale) of the same molecule?
The value was 0.

What about the “Foxtail, Green plant response rating (0-100)” value [26, 30] of the same molecule?
The value was 0.

And the “Corn plant response rating” value (corn (Zea mays) [27]; 16 g ai/ha, 0 to 100 scale)?
The value was 0.

What about the “Corn plant response rating (0-100)” value (corn (Zea mays) [27]; [30]) of the same molecule?
Its value is 0.
